Measurements reported in patent US10208021B2, “Substituted tetrahydroisoquinoline compounds as factor XIa inhibitors” (BRISTOL-MYERS SQUIBB COMPANY, priority 2011, dated 2019).
Where a name gives a salt, the structure may show the parent alone.

Molecular target: purified human Factor XIa (Homo sapiens (Human), UniProt P03951)
Assay: Factor XIa chromogenic substrate (S-2366) inhibition assay
Type: biochemical
Outline: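 Ki derived from reaction velocities measured in the presence of inhibitor. Purified protease hydrolysed the chromogenic substrate; rate of absorbance change was followed over 20-180 minutes, depending on the protease.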

[1] = substrate S-2366, activity ranges, Table A

Sequence of purified human Factor XIa (P03951 388-625): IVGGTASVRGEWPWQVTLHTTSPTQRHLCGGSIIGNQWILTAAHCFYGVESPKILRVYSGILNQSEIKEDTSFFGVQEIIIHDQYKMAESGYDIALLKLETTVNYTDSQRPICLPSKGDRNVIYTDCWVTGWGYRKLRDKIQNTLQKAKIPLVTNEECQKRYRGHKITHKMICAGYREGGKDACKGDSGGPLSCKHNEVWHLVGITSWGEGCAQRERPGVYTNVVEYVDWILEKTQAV
Sequence of purified human Factor XIa (P03951 19-387 partner): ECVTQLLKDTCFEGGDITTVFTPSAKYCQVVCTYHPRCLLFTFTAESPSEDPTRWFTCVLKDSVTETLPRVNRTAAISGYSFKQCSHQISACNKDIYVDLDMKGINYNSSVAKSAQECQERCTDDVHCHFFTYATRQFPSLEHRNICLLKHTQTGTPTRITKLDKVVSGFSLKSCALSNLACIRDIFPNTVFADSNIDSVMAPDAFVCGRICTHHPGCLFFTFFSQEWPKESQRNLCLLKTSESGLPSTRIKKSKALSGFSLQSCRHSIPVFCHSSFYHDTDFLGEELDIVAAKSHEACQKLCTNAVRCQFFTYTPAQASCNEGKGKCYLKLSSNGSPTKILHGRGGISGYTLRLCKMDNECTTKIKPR

Row | SMILES | Ki [1] [nM] | Ki (substrate S-2366, Table 1) [nM]
1 | CN(C)[C@@H]1CCN(c2cccc3c2CCN(C(=O)/C=C/c2c(-n4cnnn4)ccc(Cl)c2F)[C@H]3C(=O)Nc2ccc(C(=O)O)cc2)C1 [Example 209, 4-((R)-2-((E)-3-(3-Chloro-2-fluoro-6-(1H-tetrazol-1-yl)phenyl)acryloyl)-5-((R)-3-(dimethylamino)pyrrolidin-1-yl)-1,2,3,4-tetrahydroisoquinoline-1-carboxamido)benzoic acid, bis TFA salt] | < 5 | 
2 | CCOC(=O)c1ccc(NC(=O)[C@H]2c3cccc(N4CCNCC4=O)c3CCN2C(=O)/C=C/c2c(-n3cnnn3)ccc(Cl)c2F)cc1 [Example 189] |  | 1690
3 | O=C(NC1CCCNC1)C1c2cccc(N3CCC(N4CCCC4)CC3)c2CCN1C(=O)C=Cc1c(-n2cnnn2)ccc(Cl)c1F (mixture of isomers) [Example 237] |  | 4620
4 | CC(C)COC(=O)c1ccc(NC(=O)C2c3cccc(N4CCC(N5CCCC5)CC4)c3CCN2C(=O)/C=C/c2c(-n3cnnn3)ccc(Cl)c2F)cc1 (racemic) [Example 123] | < 5 | 
5 | CN(C)[C@H]1CCN(c2cccc3c2CCN(C(=O)/C=C/c2c(-n4cnnn4)ccc(Cl)c2F)[C@@H]3C(=O)Nc2ccc(C(=O)OC(C)(C)C)cc2)C1 [Example 207, tert-butyl 4-((S)-2-((E)-3-(3-chloro-2-fluoro-6-(1H-tetrazol-1-yl)phenyl)acryloyl)-5-((S)-3-(dimethylamino)pyrrolidin-1-yl)-1,2,3,4-tetrahydroisoquinoline-1-carboxamido)benzoate, bis TFA salt] | 5 to 10 | 
6 | CN1CCN(c2cccc3c2CC(C)(C)N(C(=O)/C=C/c2c(-n4cnnn4)ccc(Cl)c2F)[C@@H]3C(=O)Nc2ccc(C(=O)O)cc2)CC1 [Example 201] | < 5 | 
7 | COC(=O)N1CCN(c2cccc3c2CCN(C(=O)/C=C/c2c(-n4cnnn4)ccc(Cl)c2F)C3C(=O)Nc2ccc(F)cc2)CC1 (stereo not shown) [Example 25] | 5 to 10 | 
8 | O=C(Nc1ccc(F)cc1)C1c2cccc(N3CCNCC3)c2CCN1C(=O)/C=C/c1c(-n2cnnn2)ccc(Cl)c1F (stereo not shown) [Example 5] | 5 to 10 | 
9 | CC(=O)c1ccc(Cl)c(F)c1C=CC(=O)N1CCc2c(cccc2N2CCC(N3CCCC3)CC2)C1C(=O)Nc1ccc(C(=O)O)cc1 (stereo not shown) [Example 167] | 5 to 10 | 
10 | CC(=O)c1ccc(Cl)c(F)c1C=CC(=O)N1CCc2c(cccc2N2CCC(N3CCCC3)CC2)C1C(=O)Nc1ccc(C(=O)OCc2ccccc2)cc1 (stereo not shown) [Example 171] | 5 to 10 | 
11 | CC(C)(C)OC(=O)c1ccc(NC(=O)C2c3cccc(N4CCC(N5CCCC5)CC4)c3CCN2C(=O)/C=C/c2c(-n3cnnn3)ccc(Cl)c2F)cc1 (racemic) [Example 84] | < 5 | 
12 | O=C(O)c1ccc(NC(=O)C2c3cccc(N4CCNCC4)c3CCN2C(=O)C=Cc2c(-n3cnnn3)ccc(Cl)c2F)cc1 (stereo not shown) [Example 13] |  | < 5
13 | CC(=O)N1CCN(c2cccc3c2CC(C)(C)N(C(=O)/C=C/c2c(-n4cnnn4)ccc(Cl)c2F)[C@H]3C(=O)Nc2ccc(C(=O)O)cc2)CC1 [Example 205] | 5 to 10 | 
14 | CN(C)[C@H]1CCN(c2cccc3c2CCN(C(=O)/C=C/c2c(-n4cnnn4)ccc(Cl)c2F)[C@@H]3C(=O)Nc2ccc(C(=O)O)cc2)C1 [Example 206, 4-((S)-2-((E)-3-(3-Chloro-2-fluoro-6-(1H-tetrazol-1-yl)phenyl)acryloyl)-5-((S)-3-(dimethylamino)pyrrolidin-1-yl)-1,2,3,4-tetrahydroisoquinoline-1-carboxamido)benzoic acid, bis-TFA Salt] | < 5 | 
15 | CCOC(=O)c1ccc(NC(=O)C2c3cccc(N4CCC(N5CCCC5)CC4)c3CCN2C(=O)C=Cc2c(-n3cnnn3)ccc(Cl)c2F)cc1 (stereo not shown) [Example 93] | 5 to 10 | 
16 | N#Cc1ccc(NC(=O)C2c3cccc(N4CCNCC4)c3CCN2C(=O)/C=C/c2c(-n3cnnn3)ccc(Cl)c2F)cc1 (stereo not shown) [Example 6] | 5 to 10 | 

Row | SMILES | Ki [1] [nM] | Ki (substrate S-2366, Table 1) [nM]
17 | CCOC(=O)c1ccc(NC(=O)C2c3cccc(N4CCC(N5CCCC5)CC4)c3CCN2C(=O)C=Cc2c(C(F)(F)F)ccc(Cl)c2F)cc1 (stereo not shown) [Example 177] | 5 to 10 | 
18 | NC(=O)c1ccc(NC(=O)C2c3cccc(N4CCNCC4)c3CCN2C(=O)/C=C/c2cc(Cl)c(F)cc2-n2cnnn2)cc1 (stereo not shown) [Example 66, (E)-N-(4-carbamoylphenyl)-2-(3-(5-chloro-4-fluoro-2-(1H-tetrazol-1-yl)phenyl)acryloyl)-5-(piperazin-1-yl)-1,2,3,4-tetrahydroisoquinoline-1-carboxamide, bis-TFA Salt] | 5 to 10 | 
19 | CCOC(=O)c1ccc(NC(=O)C2c3cccc(N4CCN(C)CC4)c3CCN2C(=O)C=Cc2c(-n3cnnn3)ccc(Cl)c2F)cc1 (stereo not shown) [compound 29] | 5 to 10 | 
20 | CC1(C)Cc2c(cccc2N2CCNCC2)[C@@H](C(=O)Nc2ccc(C(=O)O)cc2)N1C(=O)/C=C/c1c(-n2cnnn2)ccc(Cl)c1F [Example 194, (S,E)-4-(2-(3-(3-Chloro-2-fluoro-6-(1H-tetrazol-1-yl)phenyl)acryloyl)-3,3-dimethyl-5-(piperazin-1-yl)-1,2,3,4-tetrahydroisoquinoline-1-carboxamido) benzoic acid, bis-TFA salt] | < 5 | 
21 | CC(C)(C)OC(=O)c1ccc(NC(=O)C2c3cccc(N4CCOCC4)c3CCN2C(=O)/C=C/c2c(-n3cnnn3)ccc(Cl)c2F)cc1 (racemic) [Example 59] | 5 to 10 | 
22 | CCOC(=O)c1ccc(NC(=O)C2c3cccc(N4CCC(N5CCCC5)CC4)c3CCN2C(=O)C=Cc2c(-n3cnnn3)ccc(Cl)c2F)cc1 (stereo not shown) [Example 94] |  | < 5
23 | CCOC(=O)c1ccc(NC(=O)[C@H]2c3cccc(N4CCC(N(C)C)CC4)c3CCN2C(=O)/C=C/c2c(-n3cnnn3)ccc(Cl)c2F)cc1 [Example 128] |  | 133
24 | CN(C)[C@@H]1CCN(c2cccc3c2CCN(C(=O)/C=C/c2c(-n4cnnn4)ccc(Cl)c2F)[C@@H]3C(=O)Nc2ccc(C(=O)O)cc2)C1 [Example 210, 4-((S)-2-((E)-3-(3-Chloro-2-fluoro-6-(1H-tetrazol-1-yl)phenyl)acryloyl)-5-((R)-3-(dimethylamino)pyrrolidin-1-yl)-1,2,3,4-tetrahydroisoquinoline-1-carboxamido)benzoic acid, bis-TFA salt] | < 5 | 
25 | CC(=O)NCCNC(=O)c1ccc(NC(=O)C2c3cccc(N4CCNCC4)c3CCN2C(=O)/C=C/c2cc(Cl)c(F)cc2-n2cnnn2)cc1 (racemic) [Example 72] | 500 to 5000 | 
26 | O=C(O)c1ccc(NC(=O)C2c3cccc(N4CCC(N5CCCC5)CC4)c3CCN2C(=O)/C=C/c2ccccc2F)cc1 (racemic) [Example 181] | 5 to 10 | 
27 | CC(=O)c1ccc(Cl)c(F)c1C=CC(=O)N1CCc2c(cccc2N2CCC(N3CCCC3)CC2)C1C(=O)Nc1ccc(C(=O)O)cc1 (stereo not shown) [Example 168] | < 5 | 
28 | O=C(O)c1ccc(NC(=O)C2c3cccc(N4CCNCC4)c3CCN2C(=O)/C=C/c2c(-n3cnnn3)ccc(Cl)c2F)cc1 (stereo not shown) [Example 3] | < 5 | 
29 | NC(=O)CCNC(=O)c1ccc(NC(=O)C2c3cccc(N4CCNCC4)c3CCN2C(=O)/C=C/c2cc(Cl)c(F)cc2-n2cnnn2)cc1 (racemic) [Example 73] | 500 to 5000 | 
30 | CCOC(=O)c1ccc(NC(=O)C2c3cccc(N4CCC(N5CCCC5)CC4)c3CCN2C(=O)/C=C/c2c(C(C)=O)ccc(Cl)c2F)cc1 (racemic) [Example 160] | 5 to 10 | 
31 | O=C(OC1CCCC1)c1ccc(NC(=O)C2c3cccc(N4CCC(N5CCCC5)CC4)c3CCN2C(=O)/C=C/c2c(-n3cnnn3)ccc(Cl)c2F)cc1 (racemic) [Example 124] | < 5 | 
